Test results from paper PMC10046037, “GABRG2 Variants Associated with Febrile Seizures” (Biomolecules, 2023).

Molecular target: T1, α1β3γ2 GABAA receptor, γ2F464S variant (Homo sapiens, UniProt P14867+P18507+P28472, F464S)
T1 construct: expressed in transfected cells; host or cells: HEK293T
T1 sequence (P14867 28-456): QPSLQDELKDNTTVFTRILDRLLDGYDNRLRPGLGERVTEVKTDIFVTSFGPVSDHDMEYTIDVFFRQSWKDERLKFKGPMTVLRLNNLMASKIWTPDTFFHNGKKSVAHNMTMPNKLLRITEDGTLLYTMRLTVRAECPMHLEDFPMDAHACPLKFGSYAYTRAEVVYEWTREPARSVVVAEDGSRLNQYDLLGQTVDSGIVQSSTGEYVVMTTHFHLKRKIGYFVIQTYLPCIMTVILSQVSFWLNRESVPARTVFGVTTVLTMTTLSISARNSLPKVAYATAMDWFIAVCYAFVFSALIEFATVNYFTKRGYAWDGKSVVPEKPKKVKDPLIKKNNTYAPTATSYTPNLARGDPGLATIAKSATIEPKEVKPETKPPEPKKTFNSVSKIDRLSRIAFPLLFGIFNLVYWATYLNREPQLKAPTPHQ
T1 sequence (P28472 26-473 isoform P28472-2): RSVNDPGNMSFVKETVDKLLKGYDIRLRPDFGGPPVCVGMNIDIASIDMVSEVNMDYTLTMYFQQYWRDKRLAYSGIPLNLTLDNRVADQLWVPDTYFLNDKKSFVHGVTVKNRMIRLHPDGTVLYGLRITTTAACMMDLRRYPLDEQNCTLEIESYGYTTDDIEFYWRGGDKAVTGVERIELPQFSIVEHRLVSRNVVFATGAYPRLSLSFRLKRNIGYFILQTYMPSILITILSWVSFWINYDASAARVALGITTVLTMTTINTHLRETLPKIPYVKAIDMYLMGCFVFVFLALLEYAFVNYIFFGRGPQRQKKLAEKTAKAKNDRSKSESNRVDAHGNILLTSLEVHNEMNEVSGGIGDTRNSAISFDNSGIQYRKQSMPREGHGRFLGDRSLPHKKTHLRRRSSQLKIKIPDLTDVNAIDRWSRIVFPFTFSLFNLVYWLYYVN
T1 sequence (P18507 40-475 F464S): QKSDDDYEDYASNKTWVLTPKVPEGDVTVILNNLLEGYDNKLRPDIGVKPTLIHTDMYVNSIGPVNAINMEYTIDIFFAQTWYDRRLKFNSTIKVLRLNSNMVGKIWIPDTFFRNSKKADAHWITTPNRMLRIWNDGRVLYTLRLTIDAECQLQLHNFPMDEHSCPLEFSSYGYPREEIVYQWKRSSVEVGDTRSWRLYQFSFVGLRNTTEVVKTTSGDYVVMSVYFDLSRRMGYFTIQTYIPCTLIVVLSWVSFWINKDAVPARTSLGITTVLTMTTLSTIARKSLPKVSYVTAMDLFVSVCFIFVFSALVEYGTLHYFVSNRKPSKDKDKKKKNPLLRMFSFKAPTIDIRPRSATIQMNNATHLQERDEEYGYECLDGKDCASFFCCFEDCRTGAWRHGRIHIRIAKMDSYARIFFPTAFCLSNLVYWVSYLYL
Test: Automated patch clamp of GABA-elicited currents (SyncroPatch 384PE), γ2F464S
Format: cell-based
Details: mean
Experimental: The coding sequences of human α1 (GABRA1, NM_000806), β3 (GABRB3, NM_021912), and γ2 (GABRG2, NM_198904.2) GABAAR subunits were subcloned into the pcDNA3.1 expression vectors (Invitrogen, Waltham, MA, USA).
HEK293T cells (ATCC, CRL-11268) were cultured at 37 °C in a humidified 5% CO2 incubator and maintained in Dulbecco’s modified Eagle’s medium (Invitrogen) supplemented with 10% fetal bovine serum (Life Technologies, Carlsbad, CA, USA), and 100 IU/mL of penicillin/streptomycin (Life Technologies). For the expression experiments, 4 × 10^5 cells were transfected using polyethylenimine (PEI) reagent (40 kD, Polysciences, Warrington, PA, USA) at a DNA: to transfection reagent ratio of 1:2.5 and harvested 36 h after transfection. To express WT and variant α1β3γ2 receptors, a total of 3 µg of α1, β3, and γ2 (WT or mutant) subunit cDNAs were transfected at a ratio of 1:1:1 into 60 mm culture dishes. For the mock-transfected condition, an empty pcDNA3.1 vector was added for a final cDNA transfection amount of 3 μg. For the electrophysiology experiments, 2.5 × 10^5 cells were plated in 100 mm culture dishes and transfected after 24 h with 3 μg of cDNA of each α1, β3, γ2 (wild-type or mutant) subunit, using X-tremeGENE HP DNA transfection Reagent (Roche Diagnostics, Basel, Switzerland), following the manufacturer’s protocol. Recordings were obtained forty-eight hours after transfection.
Whole-cell patch clamp recordings were conducted according to the manufacturer’s standard procedure for the SyncroPatch 384 [31]. Whole-cell voltage-clamp recordings were performed at room temperature on HEK293T cells 48 h after transfection with GABAAR subunits, using the SyncroPatch 384PE (Nanion Technologies, Munich, Germany). Cells, at a concentration of 400,000 cells/mL, were harvested in suspension in external solution containing 140 mM of NaCl, 2 mM of CaCl2, 4 mM of KCl, 1 mM of MgCl2, 5 mM of glucose, and 10 mM of HEPES (pH 7.4 with NaOH, 298 mOsm). The cells were loaded in a multi-hole (4 holes per well) 384-well Nanion patch clamp (NPC) chip with a thick borosilicate glass bottom and an average resistance pore size of […]. Built-in electrophysiological protocols were used, and the data were digitized using PatchControl 384 (Nanion Technologies) application. Using PatchControl 384, electrophysiological parameters, such as seal resistance, capacitance, and series resistance, were determined for each well after the application of a test pulse, and subsequently monitored over time. […] The currents were normalized to the maximal response of each well, and the concentration–response curves were calculated from single-point additions. The EC50 values for each variant or wild-type receptor were calculated across multiple wells for each experimental condition.

Deactivation (1 mM GABA for 5 ms, HEK293T, -80 mV): 332.6 ms
IMAX (maximal GABA-evoked peak current) (1 mM GABA for 5 ms, HEK293T): 0.96 nA
IMAX variant/IMAX WT (1 mM GABA): 47.93%
Rise Time (10–90% rise time, 1 mM GABA for 5 ms, HEK293T): 29.22 ms
SMILES: NCCCC(=O)O [GABA, γ-aminobutyric acid]
